Experimental data published in the supplement of paper PMC10307832.

Columns and labels:
Assay in all cases: relative viability (nuclei count vs DMSO), 5 days (fraction); higher = more cells survive
[1] = compound: C1COCCN1C2=NC(=NC3=C2OC4=C3C=CC=N4)C5=CC(=CC=C5)NC(=O)C6=CN=C(C=C6)N + CC(=O)Nc1cccc(-n2c(=O)n(C3CC3)c(=O)c3c(Nc4ccc(I)cc4F)n(C)c(=O)c(C)c32)c1 [Trametinib] (partner 0.02 µM)
Summary of the method: (§1)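 Relative viability equals treated-well nuclei counts divided by vehicle-well nuclei counts. Counts came from 4× images of lung cancer cell lines grown in 1536-well plates for 5 days after pin-tool dosing on the day after seeding. Dosing used one drug alone or a fixed anchor-drug dose plus five library-drug doses (not always all listed) in √10 steps, and values are medians of duplicate plates.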

[2] = compound: C1COCCN1C2=NC(=NC3=C2OC4=C3C=CC=N4)C5=CC(=CC=C5)NC(=O)C6=CN=C(C=C6)N + C[C@@H](Oc1cc(-c2cnn(C3CCNCC3)c2)cnc1N)c1c(Cl)ccc(F)c1Cl [Crizotinib] (partner 1 µM)
Summary of the method: as §1

SGI-1776 + Pictilisib = compound: CN1CCC(CNc2ccc3ncc(-c4cccc(OC(F)(F)F)c4)n3n2)CC1 [SGI-1776] + CS(=O)(=O)N1CCN(Cc2cc3nc(-c4cccc5[nH]ncc45)nc(N4CCOCC4)c3s2)CC1 [Pictilisib] (partner 1 µM)
Summary of the method: as §1

SGI-1776 + Olaparib = compound: CN1CCC(CNc2ccc3ncc(-c4cccc(OC(F)(F)F)c4)n3n2)CC1 [SGI-1776] + O=C(c1cc(Cc2n[nH]c(=O)c3ccccc23)ccc1F)N1CCN(C(=O)C2CC2)CC1 [Olaparib] (partner 8 µM)
Summary of the method: as §1

Cell Line | relative viability ([1]; first compound 0.02 µM) | relative viability ([1]; first compound 0.06325 µM) | relative viability ([1]; first compound 0.2 µM) | relative viability ([1]; first compound 0.6325 µM) | relative viability ([1]; first compound 2 µM) | relative viability ([2]; first compound 0.02 µM) | relative viability ([2]; first compound 0.06325 µM) | relative viability ([2]; first compound 0.2 µM) | relative viability ([2]; first compound 0.6325 µM) | relative viability ([2]; first compound 2 µM) | relative viability (SGI-1776 + Pictilisib; first compound 0.08 µM) | relative viability (SGI-1776 + Pictilisib; first compound 0.8 µM) | relative viability (SGI-1776 + Pictilisib; first compound 2.53 µM) | relative viability (SGI-1776 + Pictilisib; first compound 8 µM) | relative viability (SGI-1776 + Olaparib; first compound 0.08 µM) | relative viability (SGI-1776 + Olaparib; first compound 0.8 µM) | relative viability (SGI-1776 + Olaparib; first compound 2.53 µM) | relative viability (SGI-1776 + Olaparib; first compound 8 µM)
NCI-H838 | 0.52 | 0.529 | 0.463 | 0.41 | 0.298 | 0.901 | 0.809 | 0.674 | 0.722 | 0.439 | 0.446 | 0.398 | 0.414 | 0.277 | 0.776 | 0.754 | 0.695 | 0.56
LOU-NH91 | 0.78 | 0.816 | 0.828 | 0.782 | 0.716 | 0.729 | 0.755 | 0.76 | 0.74 | 0.664 | 0.565 | 0.55 | 0.505 | 0.504 | 0.968 | 0.986 | 0.957 | 0.773
BEN | 1 | 0.947 | 1.11 | 0.888 | 0.939 | 0.928 | 0.841 | 0.932 | 0.821 | 0.504 | 0.736 | 0.643 | 0.504 | 0.396 | 1.01 | 1.15 | 1.07 | 0.966
NCI-H2085 | 0.586 | 0.582 | 0.359 | 0.549 | 0.359 | 0.971 | 0.947 | 0.817 | 0.887 | 0.522 | 0.533 | 0.505 | 0.53 | 0.356 | 0.758 | 0.797 | 0.926 | 0.794
LCLC-103H | 0.66 | 0.693 | 0.693 | 0.62 | 0.479 | 1.03 | 1.15 | 1.09 | 0.957 | 0.974 | 0.752 | 0.608 | 0.554 | 0.45 | 0.781 | 0.776 | 0.716 | 0.7
NCI-H650 | 0.923 | 1.05 | 0.951 | 0.888 | 0.796 | 0.654 | 0.713 | 0.798 | 0.755 | 0.559 | 0.958 | 0.731 | 0.868 | 0.644 | 0.455 | 0.409 | 0.438 | 0.326
NCI-H1792 | 0.451 | 0.477 | 0.368 | 0.374 | 0.231 | 1.2 | 0.946 | 1.01 | 0.767 | 0.382 | 0.282 | 0.264 | 0.284 | 0.231 | 0.623 | 0.533 | 0.429 | 0.453
EPLC-272H | 0.278 |  | 0.235 | 0.297 | 0.281 | 0.977 | 1.03 | 1.01 | 1.04 | 0.722 | 0.315 | 0.318 | 0.188 | 0.259 | 1.01 | 0.922 | 0.737 | 0.348
EKVX | 0.322 | 0.334 | 0.298 | 0.248 | 0.244 | 1.06 | 0.985 | 1.03 | 1.03 | 0.62 | 0.421 | 0.453 | 0.455 | 0.379 | 0.827 | 0.906 | 0.875 | 0.737
NCI-H1666 | 1.04 | 0.865 | 0.753 | 0.751 | 0.694 | 0.743 | 1.08 | 0.82 | 1.03 | 0.619 | 0.568 | 0.403 | 0.404 | 0.313 | 0.794 | 0.782 | 0.838 | 0.729
HCC-15 | 0.413 | 0.423 | 0.343 | 0.325 | 0.278 | 0.824 | 0.938 | 0.843 | 0.819 | 0.545 | 0.657 | 0.839 | 0.665 | 0.468 | 0.717 | 0.759 | 0.755 | 0.687
LCLC-97TM1 | 0.187 | 0.205 | 0.204 | 0.169 | 0.134 |  | 0.407 | 0.321 | 0.341 | 0.308 | 0.25 | 0.296 | 0.196 | 0.179 | 0.421 | 0.421 | 0.419 | 0.439
NCI-H2347 | 0.302 | 0.264 | 0.289 | 0.314 | 0.258 | 0.603 | 0.678 | 0.744 | 0.759 | 0.649 | 0.614 | 0.941 | 0.734 | 0.614 | 0.606 | 0.674 | 0.632 | 0.614
NCI-H1915 | 0.3 | 0.313 | 0.298 | 0.218 | 0.281 | 0.887 | 1 | 0.983 | 0.907 | 0.494 | 0.934 | 0.979 | 0.964 | 0.838 | 0.256 | 0.265 | 0.248 | 0.23
NCI-H647 | 0.414 | 0.483 | 0.419 | 0.378 | 0.234 | 1.16 | 1.17 | 0.943 | 1.09 | 0.283 | 0.474 | 0.434 | 0.247 | 0.219 | 0.67 | 0.484 | 0.438 | 0.206
NCI-H1650 | 0.535 | 0.497 | 0.575 | 0.526 | 0.39 | 1 | 1.05 | 0.94 | 1.06 | 0.601 | 0.586 | 0.542 | 0.355 | 0.146 | 0.8 | 0.946 | 0.734 | 0.607
